The results in this text go back to ChEMBL document CHEMBL1127260, “EMD 61 753 as a favourable representative of structurally novel arylacetamido-type K opiate receptor agonists” (Bioorg Med Chem Lett, 1994).

The target in assay [1] is Kappa-type opioid receptor (Cavia porcellus, UniProt P41144). Put plainly: Affinity at K opioid receptor on membranes prepared from guinea pig cerebellum by [3H]- 69593 displacement. The class given is tissue-based.
A further assay has as its target Mu-type opioid receptor (Rattus norvegicus, UniProt P33535). Nature of the assay: Affinity to mu opioid receptor determined in the presence of [3H]- PL 017 using membranes prepared from rat cerebrum.
Assay [2] deals with Mus musculus. Nature of the assay: Inhibitory dose (sc) in the formalin test in mice at early phase. The conditions noted are these: read-out: ID50 (the source's name). The assay is classed as functional.
The test system of assay [3] is Mus musculus. Nature of the assay: Inhibitory dose (sc) in the formalin test in mice at late phase. The assay is classed as functional. The note with it: read-out: ID50 (the source's name).
Assay [4] concerns the target Delta-type opioid receptor (Rattus norvegicus, UniProt P33533). Put plainly: Affinity to delta opioid receptor determined in the presence of [3H]- [D-Pen2,5]enkephalin using membranes prepared from rat cerebrum.

Delta-type opioid receptor, sequence (P33533 whole entry): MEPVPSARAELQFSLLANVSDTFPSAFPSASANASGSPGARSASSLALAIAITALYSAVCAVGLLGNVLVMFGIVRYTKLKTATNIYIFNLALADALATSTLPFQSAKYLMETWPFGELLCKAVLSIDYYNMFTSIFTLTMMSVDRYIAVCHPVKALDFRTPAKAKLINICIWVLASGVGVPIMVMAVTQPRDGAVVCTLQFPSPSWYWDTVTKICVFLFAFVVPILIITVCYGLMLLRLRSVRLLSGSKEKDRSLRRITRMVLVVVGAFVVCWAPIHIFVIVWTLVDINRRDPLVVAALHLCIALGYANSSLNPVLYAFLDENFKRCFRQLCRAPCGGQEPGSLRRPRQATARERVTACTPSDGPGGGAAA
Kappa-type opioid receptor, sequence (P41144 whole entry): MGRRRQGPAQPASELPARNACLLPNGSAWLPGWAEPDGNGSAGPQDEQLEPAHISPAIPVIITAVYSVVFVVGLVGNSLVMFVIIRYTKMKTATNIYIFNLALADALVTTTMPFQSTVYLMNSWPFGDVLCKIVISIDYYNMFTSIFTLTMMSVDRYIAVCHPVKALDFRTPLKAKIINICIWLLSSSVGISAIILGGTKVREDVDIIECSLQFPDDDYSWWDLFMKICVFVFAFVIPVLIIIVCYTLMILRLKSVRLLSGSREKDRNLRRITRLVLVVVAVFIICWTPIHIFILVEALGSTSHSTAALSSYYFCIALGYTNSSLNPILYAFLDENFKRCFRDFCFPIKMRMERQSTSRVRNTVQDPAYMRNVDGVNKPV
Mu-type opioid receptor, sequence (P33535 whole entry): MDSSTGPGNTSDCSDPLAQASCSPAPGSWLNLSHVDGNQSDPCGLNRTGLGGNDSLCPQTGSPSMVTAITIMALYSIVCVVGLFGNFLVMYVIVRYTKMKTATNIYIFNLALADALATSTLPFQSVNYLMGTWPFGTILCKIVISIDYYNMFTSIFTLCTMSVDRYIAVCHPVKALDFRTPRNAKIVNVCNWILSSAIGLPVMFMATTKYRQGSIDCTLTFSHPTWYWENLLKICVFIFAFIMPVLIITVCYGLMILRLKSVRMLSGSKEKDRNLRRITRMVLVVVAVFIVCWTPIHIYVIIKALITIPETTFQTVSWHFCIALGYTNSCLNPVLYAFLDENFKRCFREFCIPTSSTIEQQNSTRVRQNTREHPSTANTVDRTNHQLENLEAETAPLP

Regarding `COc1ccc([C@@H](CN2CC[C@H](O)C2)N(C)C(=O)C(c2ccccc2)c2ccccc2)cc1`, in assay [1] (read-out: Ki), the Ki was determined as 0.007 µM.
As to `CN(C(=O)C(c1ccccc1)c1ccccc1)[C@H](CN1CC[C@H](O)C1)c1ccccc1.Cl` [ASIMADOLINE HYDROCHLORIDE], the Ki (on Mu-type opioid receptor; in assay [4]) was above 0.1 µM each time. The values for the ED50 in the assay with Mus musculus [2] and with Mus musculus [3] were above 2 mg/kg and 0.24 mg/kg, respectively.
As for `CN(C(=O)C(c1ccccc1)c1ccccc1)[C@H](CN1CC[C@H](O)C1)c1cccc(N)c1`, the Ki in assay [1] (read-out: Ki) worked out at 0.006 µM.
With `CN(C(=O)C1c2ccccc2Oc2ccccc21)[C@H](CN1CC[C@H](O)C1)c1ccccc1`, the Ki at Mu-type opioid receptor was above 0.1 µM; in assay [1] (read-out: Ki) it was 0.004 µM; in assay [4] it was above 0.1 µM.
For `CN(C(=O)C1c2ccccc2CCc2ccccc21)[C@H](CN1CC[C@H](O)C1)c1ccccc1.Cl`, the Ki at Mu-type opioid receptor was above 0.1 µM; in assay [1], 20 nM l-1; in assay [4], above 0.1 µM.
For `CN(C(=O)C(c1ccccc1)c1ccccc1)[C@H](CN1CC[C@H](O)C1)c1ccc(O)cc1`, the Ki in assay [1] (read-out: Ki) is 0.006 µM.
For the compound `CN(C(=O)C1c2ccccc2Cc2ccccc21)[C@H](CN1CC[C@H](O)C1)c1ccccc1`, the Ki at Mu-type opioid receptor is above 0.1 µM; in assay [1] (read-out: Ki), 0.004 µM; in assay [4], above 0.1 µM.
For `CN(C(=O)C(c1ccccc1)C1CCCCC1)[C@H](CN1CC[C@H](O)C1)c1ccccc1` (stereo in doubt; form 1), the Ki on Mu-type opioid receptor was above 0.1 µM; in assay [1] (read-out: Ki), 0.01 µM; in assay [4] it was above 0.1 µM.
With `CN1CC[C@]23c4c5ccc(O)c4O[C@H]2[C@@H](O)C=C[C@H]3[C@H]1C5` [MORPHINE], the values for the ED50 in the assay with Mus musculus [2] and in the assay on Mus musculus [3] were 1.7 mg/kg and 3.4 mg/kg, respectively.
In the case of `CN(C(=O)C(c1ccc(Cl)cc1)c1ccc(Cl)cc1)[C@H](CN1CC[C@H](O)C1)c1ccccc1`, the Ki at Mu-type opioid receptor was above 0.1 µM; in assay [1] (read-out: Ki), 0.005 µM; in assay [4], above 0.1 µM.
`CN(C(=O)C(c1ccccc1)c1ccccc1)[C@H](CN1CC[C@H](O)C1)c1cccc([N+](=O)[O-])c1.Cl` gave a Ki in assay [1] of 20 nM l-1.
As to `CN(C(=O)C1c2ccccc2Sc2ccccc21)[C@H](CN1CC[C@H](O)C1)c1ccccc1`, the values for the Ki (at Mu-type opioid receptor; in assay [1] (read-out: Ki); in assay [4]) were above 0.1 µM, 0.01 µM and above 0.1 µM, respectively.
Consider `CC(C)[C@@H](CN1CCCC1)N(C)C(=O)Cc1ccc(Cl)c(Cl)c1`, for which the ED50 in the assay with Mus musculus [2] was 0.04 mg/kg; in the assay on Mus musculus [3], 0.02 mg/kg.
In the case of `CN(C(=O)C(c1cccs1)c1cccs1)[C@H](CN1CC[C@H](O)C1)c1ccccc1`, the Ki on Mu-type opioid receptor is above 0.1 µM; in assay [1] (read-out: Ki) it was 0.004 µM; in assay [4] it was above 0.1 µM.
As for `CN(C(=O)C1c2ccccc2-c2ccccc21)[C@H](CN1CC[C@H](O)C1)c1ccccc1`, the Ki stood at 0.04 µM at Mu-type opioid receptor, 0.006 µM in assay [1] (read-out: Ki) and 0.06 µM in assay [4].
For `CN(C(=O)C(c1ccc(F)cc1)c1ccc(F)cc1)[C@H](CN1CC[C@H](O)C1)c1ccccc1`, in that order: above 0.1 µM, 0.007 µM and above 0.1 µM.
Regarding `CN(C(=O)C(c1ccccc1)C1CCCCC1)[C@H](CN1CC[C@H](O)C1)c1ccccc1` (stereo in doubt; form 2), the Ki was above 0.1 µM on Mu-type opioid receptor, 0.01 µM in assay [1] (read-out: Ki) and above 0.1 µM in assay [4].
Take `Cc1ccc(C(C(=O)N(C)[C@H](CN2CC[C@H](O)C2)c2ccccc2)c2ccc(C)cc2)cc1.Cl`: the Ki is above 0.1 µM on Mu-type opioid receptor, 20 nM l-1 in assay [1] and above 0.1 µM in assay [4].
With `CC(=O)Nc1cccc([C@@H](CN2CC[C@H](O)C2)N(C)C(=O)C(c2ccccc2)c2ccccc2)c1`, the Ki in assay [1] (read-out: Ki) came out at 0.006 µM.
